For series [1], the target named is T1, AChE (EC 3.1.1.7) from electric eel (Electrophorus electricus, UniProt O42275).
T1 construct: purchased Sigma-Aldrich
Put plainly: biochemical. Type of series: biochemical. The conditions noted are these: for SI (selectivity index = AChE IC50/BChE IC50): eeAChE IC50 / eqBChE IC50. On the procedure:
(§1) The data were expressed as IC50 values (Table 1).
(§2) The inhibitory activities of the target compounds towards AChE (from Electrophorus electricus (electric eeAChE, Sigma-Aldrich) and horse serum BChE (eqBChE, Sigma-Aldrich) or human AChE – huAChE; human BuChE – huBuChE (huAChE, huBuChE, Sigma-Aldrich) were measured by Ellman’s method. In 96-well plates, a mixture of phosphate buffer (0.1 M, pH 8.0, […]), 5,5′-dithiobis-2-nitrobenzoic acid (DTNB, 60 µL), acetylcholinestrase or butyrylcholinesterase (20 µL, 5 IU/mL) and different concentration of the compound solution (30 µL) was pre-incubated for 5 min followed by the addition of the substrate (acetylthiocholine iodide or butyrylthiocholine iodide, 20 µL). […] The measurement of each concentration for each compound was detected in triplicate. GraphPad Prism 6.0 (GraphPad Software, Inc., La Jolla, CA) was used for data processing. The inhibition curve was fitted by plotting percentage enzyme activity (100% for the reference) versus the logarithm of the concentration of tested compound. The half-maximal inhibitory concentration (IC50) values were calculated according to the inhibition curve and the data were shown in the layout of mean ± SEM by GraphPad Prism 6.0.

Series [2] addresses T2, BChE (EC 3.1.1.8) from horse serum (Equus caballus, UniProt P81908).
T2 construct: horse serum BChE (eqBChE, Sigma-Aldrich); purchased Sigma-Aldrich; host or cells: horse serum
As to the kind of experiment: biochemical. The conditions noted are these: eqBChE; for IC50: mean ± SEM of triplicate independent experiments, read-out: BChE IC50. The protocol: as §1, §2

The test system of series [3] is scopolamine-induced cognition impairment in ICR mice. As to the kind of experiment: Morris water maze test, scopolamine-induced cognition impairment. Type of series: in vivo. The conditions noted are these: oral 15 mg kg−1, scopolamine 1 mg kg−1 ip, probe trial on sixth day, mean ± SEM n = 6. The protocol: The test included 5 days of learning and memory training and a probe trial on the sixth day.
Scopolamine hydrobromide was supplied by Aladdin Reagents (H1507073, Shanghai, China).
Cognitive function was evaluated by the Morris water maze analysis-management system (SMART 3.0, Panlab, Madrid, Spain), according to the method previously described[30].The maze was placed in a lit room with visual cues at 25 °C. An escape platform (10 cm diameter) was located in the centre of one quadrant of the circular pool (120 cm diameter, 60 cm height) with a depth of 40 cm water. The behavioural study of each mouse included 5 days of learning and memory training and a probe trial on day 6. The animal starting positions faced to the pool wall, and were pseudorandomised for each trial. For the cognitive evaluation, each mouse was individually evaluated on both visible-platform (days 1–2) and hidden-platform (days 3–5) versions of the water maze. All mice received nonspatial pretraining during the first two training days, which prepared them for the subsequent spatial learning test. During the two days, mice were trained to find the platform that was labelled by a small flag (5 cm tall). The hidden platform version was used to determine the retention of memory to find the platform. During the hidden-platform training trials, the escape platform was placed 1 cm below the surface of the water. On each day, the animal was subjected to two trials, each of which lasted for 90 s. The time for the mouse to find the platform (a successful escape) was recorded. […] On the last day (day 6), the platform was removed from its location and the animals were given a probe trial in which they had 90 s to search for the platform. The time taken to reach the missing platform and the number of times the animals crossed the platform location were recorded.
Data for the time of escape latency, the trajectory travelled, and the number of platform location crossings were recorded by SMART 3.0, Panlab, Madrid, Spain and processed by GraphPad Prism 6.0.

The format of series [4] is in vivo. The conditions noted are these: serum, tacrine 30 mg kg−1, mean ± SEM n = 6. On the procedure:
. Heparinised serum was obtained after the treatment of 15b and 15j at 8, 22, and 36 h, respectively. The serum levels of ALT and AST are directly proportional to the severity of the liver damage. […]

A further series has as its system liver. Put plainly: Liver histopathological study (HE staining). To be noted: 36 h after administration, compared to control group. The text has this:
Figure 7. […] HE staining, original magnification ×200.

[5] abbreviates: eeAChE, mean ± SEM of triplicate independent experiments, read-out: AChE IC50.

The term IC50 denotes the concentration that gives 50% inhibition.

Read-outs that look alike come from different tables or passages of the source.

T2 sequence (P81908 whole entry): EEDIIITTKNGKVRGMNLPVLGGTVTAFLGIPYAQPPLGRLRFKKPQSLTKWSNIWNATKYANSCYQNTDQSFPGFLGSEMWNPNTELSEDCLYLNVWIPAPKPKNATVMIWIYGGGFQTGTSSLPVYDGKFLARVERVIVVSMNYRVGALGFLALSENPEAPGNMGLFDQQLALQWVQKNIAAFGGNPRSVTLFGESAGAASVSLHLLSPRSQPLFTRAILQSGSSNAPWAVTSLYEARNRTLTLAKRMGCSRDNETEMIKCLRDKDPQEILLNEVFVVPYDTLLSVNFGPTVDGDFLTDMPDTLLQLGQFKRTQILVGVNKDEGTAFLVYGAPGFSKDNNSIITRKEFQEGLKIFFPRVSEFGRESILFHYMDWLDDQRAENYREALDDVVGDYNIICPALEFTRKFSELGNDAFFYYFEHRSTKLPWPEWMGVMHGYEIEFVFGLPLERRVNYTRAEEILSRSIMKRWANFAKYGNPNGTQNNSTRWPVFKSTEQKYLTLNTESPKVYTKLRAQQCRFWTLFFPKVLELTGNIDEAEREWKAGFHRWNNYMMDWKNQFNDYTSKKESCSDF
T1 sequence (O42275 24-633): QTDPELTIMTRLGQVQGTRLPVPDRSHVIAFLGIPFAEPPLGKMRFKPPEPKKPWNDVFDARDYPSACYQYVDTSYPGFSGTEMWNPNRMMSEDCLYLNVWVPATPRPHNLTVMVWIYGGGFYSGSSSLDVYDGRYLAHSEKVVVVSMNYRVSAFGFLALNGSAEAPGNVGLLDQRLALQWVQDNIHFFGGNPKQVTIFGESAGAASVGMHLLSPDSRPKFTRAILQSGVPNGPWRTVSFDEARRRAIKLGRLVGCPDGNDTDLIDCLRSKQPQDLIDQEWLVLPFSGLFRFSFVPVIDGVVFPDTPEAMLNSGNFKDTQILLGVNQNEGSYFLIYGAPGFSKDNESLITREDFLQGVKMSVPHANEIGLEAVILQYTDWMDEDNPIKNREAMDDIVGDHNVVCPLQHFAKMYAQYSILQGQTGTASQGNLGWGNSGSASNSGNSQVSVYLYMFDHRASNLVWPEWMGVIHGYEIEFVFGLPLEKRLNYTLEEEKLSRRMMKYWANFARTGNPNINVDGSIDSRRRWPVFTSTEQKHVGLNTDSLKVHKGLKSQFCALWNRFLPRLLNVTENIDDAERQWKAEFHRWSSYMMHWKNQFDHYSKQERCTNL

In the case of `O=C(NCC1CCN(Cc2ccccc2)CC1)c1ccc2[nH]nnc2c1` [Compound 11f, N-((1-benzylpiperidin-4-yl)methyl)-1H-benzo[d][1,2,3]triazole-5-carboxamide], in series [1], half-maximal inhibition (IC50) required 0.46 ± 0.4 µM. Besides, in series [2] (compound at 100 μM, read-out: BChE IR (inhibitory rate)), the inhibition at 100 µM stood at 43.1%.

Take `Cn1c(=O)n(C)c2cc(S(=O)(=O)NCC3CCN(Cc4ccccc4)CC3)ccc21` [Compound 15a, N-((1-benzylpiperidin-4-yl)methyl)-1,3-dimethyl-2-oxo-2,3-dihydro-1H-benzo[d]imidazole-5-sulphonamide]: the “SI (selectivity index = AChE IC50/BChE IC50)” value in series [1] stood at 0.84. The IC50 worked out at 0.38 ± 0.08 µM in series [1] (setting [5]) and 0.45 ± 0.02 µM in series [2].

On to `Cc1cccc(CN2CCC(CNS(=O)(=O)c3ccc4c(c3)n(C)c(=O)n4C)CC2)c1` [Compound 15c, 1,3-dimethyl-N-((1–(3-methylbenzyl)piperidin-4-yl)methyl)-2-oxo-2,3-dihydro-1H-benzo[d]imidazole-5-sulphonamide], for which the “SI (selectivity index = AChE IC50/BChE IC50)” value in series [1] worked out at 1.14. Moreover, the results for the IC50 in series [1] (setting [5]) and in series [2] were 0.54 ± 0.14 µM and 0.47 ± 0.17 µM, respectively.

On to `Cc1ccc(CN2CCC(CNS(=O)(=O)c3ccc4c(c3)n(C)c(=O)n4C)CC2)cc1` [Compound 15d, 1,3-dimethyl-N-((1–(4-methylbenzyl)piperidin-4-yl)methyl)-2-oxo-2,3-dihydro-1H-benzo[d]imidazole-5-sulphonamide], for which, in series [1], the “SI (selectivity index = AChE IC50/BChE IC50)” value was 0.24. The IC50 came to 24.8 ± 3.48 µM in series [1] (setting [5]) and 100 ± 22.1 µM in series [2].

Consider `COc1cccc(CN2CCC(CNS(=O)(=O)c3ccc4c(c3)n(C)c(=O)n4C)CC2)c1` [Compound 15e, N-((1–(3-methoxybenzyl)piperidin-4-yl)methyl)-1,3-dimethyl-2-oxo-2,3-dihydro-1H-benzo[d]imidazole-5-sulphonamide], for which, in series [1], the “SI (selectivity index = AChE IC50/BChE IC50)” value was found to be 0.45. The IC50 stood at 9.35 ± 2.32 µM in series [1] (setting [5]) and 20.3 ± 3.08 µM in series [2].

On to `Cn1c(=O)n(C)c2cc(S(=O)(=O)NCC3CCN(Cc4cccc(F)c4)CC3)ccc21` [Compound 15f, N-((1–(3-fluorobenzyl)piperidin-4-yl)methyl)-1,3-dimethyl-2-oxo-2,3-dihydro-1H-benzo[d]imidazole-5-sulphonamide], for which the “SI (selectivity index = AChE IC50/BChE IC50)” value in series [1] is listed as 0.75. Moreover, the figures for the IC50 in series [1] (setting [5]) and in series [2] were 1.04 ± 0.48 µM and 1.37 ± 0.74 µM, respectively.

In the case of `Cn1c(=O)n(C)c2cc(S(=O)(=O)NCC3CCN(Cc4cccc(Cl)c4)CC3)ccc21` [Compound 15g, N-((1–(3-chlorobenzyl)piperidin-4-yl)methyl)-1,3-dimethyl-2-oxo-2,3-dihydro-1H-benzo[d]imidazole-5-sulphonamide], the “SI (selectivity index = AChE IC50/BChE IC50)” value in series [1] worked out at 0.15. In addition, the results for the IC50 in series [1] (setting [5]) and in series [2] were 0.15 ± 0.02 µM and 1.01 ± 0.46 µM, respectively.

Turning to `Cn1c(=O)n(C)c2cc(S(=O)(=O)NCC3CCN(Cc4ccc(Cl)cc4)CC3)ccc21` [Compound 15h, N-((1–(4-chlorobenzyl)piperidin-4-yl)methyl)-1,3-dimethyl-2-oxo-2,3-dihydro-1H-benzo[d]imidazole-5-sulphonamide], the “SI (selectivity index = AChE IC50/BChE IC50)” value in series [1] came to 0.87. The IC50 was found to be 1.95 ± 0.28 µM in series [1] (setting [5]) and 2.23 ± 0.81 µM in series [2].

On to `Cn1c(=O)n(C)c2cc(S(=O)(=O)NCC3CCN(Cc4ccccc4Br)CC3)ccc21` [Compound 15i, N-((1–(2-bromobenzyl)piperidin-4-yl)methyl)-1,3-dimethyl-2-oxo-2,3-dihydro-1H-benzo[d]imidazole-5-sulphonamide], for which the IC50 in series [1] (setting [5]) was found to be 0.42 ± 0.06 µM; in series [2], 0.22 ± 0.04 µM.

As to `Nc1c2c(nc3ccccc13)CCCC2` [Tacrine], in series [3], the Distance to target was found to be 310.01 ± 9.54 cm and the Latency to target turned out to be 12.06 ± 0.37 s. In addition, in series [4] (8 h after treatment), the ALT came to 32.7 ± 1.7 U/L and the AST came to 95.1 ± 9.5 U/L. In series [4] (22 h after treatment), this compound showed an ALT of 31.7 ± 1.2 U/L and an AST of 108.9 ± 6.1 U/L. In series [4] (36 h after treatment), the ALT was found to be 35.8 ± 6.7 U/L and the AST was found to be 110.4 ± 9.4 U/L. Also, in the series with liver, the “morphologic changes in liver” value was “did not result in remarkable morphologic changes in liver”.

The values above are taken from publication PMC6968383, “Design, synthesis, in vitro and in vivo evaluation of benzylpiperidine-linked 1,3-dimethylbenzimidazolinones as cholinesterase inhibitors against Alzheimer’s disease” (Journal of Enzyme Inhibition and Medicinal Chemistry, 2019).
